Assay [1] has as its system HepG2. Nature of the assay: Induction of apoptosis in human HepG2 cells assessed as viable cells at 0.625 uM incubated for 24 hrs by Annexin-V/PI staining based flow cytometry (Rvb=94.0%). It is filed as functional. The conditions noted are these: read-out: Activity. A general note: In flow cytometry, cells or beads pass a laser one at a time.
Assay [2] concerns HepG2. Kind of assay: Induction of apoptosis in human HepG2 cells assessed as early apoptotic cells at 1.25 uM incubated for 24 hrs by Annexin-V/PI staining based flow cytometry (Rvb=4.48%). Format: functional.
The subject of assay [3] is HepG2. Nature of the assay: Antimigratory activity against human HepG2 cells assessed as inhibition of cell migration at 0.625 to 5 uM measured upto 24 hrs by wound healing assay. Format: functional, cell-based. The conditions noted are these: dose 0.625-5 µM.
In assay [4] the test system is HepG2. Nature of the assay: Induction of apoptosis in human HepG2 cells assessed as necrotic cells at 5 uM incubated for 24 hrs by Annexin-V/PI staining based flow cytometry (Rvb=0.85%). Format: functional.
Another assay deals with MCF7. Nature of the assay: Antiproliferative activity against human MCF7 cells assessed as reduction in cell viability incubated for 72 hrs by MTT assay. It is filed as functional, cell-based. The note with it: MCF7, 72 h. (Tetrazolium dyes change colour on reduction, which living cells bring about.)
The test system of assay [5] is HepG2. Nature of the assay: Inhibition of c-myc expression in human HepG2 cells at 0.625 to 2.5 uM incubated for 24 hrs by Western blot analysis. Format: functional, cell-based. The note with it: dose 0.625-2.5 µM.
The test system of assay [6] is HepG2. Kind of assay: Induction of apoptosis in human HepG2 cells assessed as necrotic cells at 0.625 uM incubated for 24 hrs by Annexin-V/PI staining based flow cytometry (Rvb=0.85%). It is filed as functional.
For assay [7], the system named is HepG2. Nature of the assay: Antimigratory activity against human HepG2 cells assessed as increase in Occludin expression at 0.625 to 2.5 uM incubated 24 hrs by Western blot analysis. It is filed as functional, cell-based. The conditions noted are these: dose 0.625-2.5 µM. For orientation: In western blotting, separated proteins are transferred to a membrane and probed.

The test system of assay [8] is HepG2. Nature of the assay: Induction of cell cycle arrest in human HepG2 cells assessed as accumulation at G2/M phase at 0.625 uM incubated for 24 hrs by flow cytometry (Rvb= 14.05%). Format: functional.
Assay [9] concerns the target Bromodomain-containing protein 4 (Homo sapiens, UniProt O60885). Kind of assay: Inhibition of BRD4 BD1 (unknown origin) by TR-FRET assay.
For assay [10], the system named is HepG2. Kind of assay: Antimigratory activity against human HepG2 cells assessed as decrease in MMP-9 expression at 0.625 to 2.5 uM incubated 24 hrs by Western blot analysis. Format: functional, cell-based. The conditions noted are these: dose 0.625-2.5 µM.

For orientation: IC50 means the concentration that gives 50% inhibition. As for `CC(=O)Nc1ccc(Oc2ccc(F)cc2F)c(-c2ccc3[nH]c(=O)c(C)nc3c2)c1`, in the assay with HepG2 [1], the viability at 0.625 µM was 92.9%. Besides, the Activity in the assay on HepG2 [2] was 6.32%; in the assay on HepG2 [4] it was 0.84%; in the assay with HepG2 [6], 0.8%; with HepG2 [7], “Dose-Dependent Effect”; with HepG2 [8], 15.5%; in the assay on HepG2 [10], “Dose-Dependent Effect”. For the same compound, the inhibition result in the assay on HepG2 [3] and with HepG2 [5] was “Dose-Dependent Effect” each time. The IC50 with MCF7 came out at 22.1 µM; in assay [9] it was 0.0823 µM.

(Values after ChEMBL document CHEMBL5236660, “Design, synthesis, and biological evaluation of quinoxalinone derivatives as potent BRD4 inhibitors” (Bioorg Med Chem, 2023).)
